Source: US6465492B1, “Heterocyclic compounds” (Sinon Corporation, priority 2001, dated 2002)

Tested on: aphids
Test: Biological test on aphid (spray on cabbage leaf in Petri dishes)
Type: in vivo
Conditions: for Number of dead aphids 1st: 1st Petri dish; for Number of dead aphids 1st / Number of dead aphids 2nd / Number of dead aphids 3rd / Number of dead aphids 4th: 20 aphids on cabbage leaf, 9.6% w/w pesticide reagent diluted 1000 times with water, sprayed, examined after 24 hours; for Number of dead aphids 2nd: 2nd Petri dish; for Number of dead aphids 3rd: 3rd Petri dish; for Number of dead aphids 4th: 4th Petri dish; for Number of dead aphids average: average of four Petri dishes
Experimental: 9.6 g of the compound (based on the active ingredient) obtained from Example 1 was blended with 90.4 g of a solvent to form a 9.6% w/w pesticide reagent An 8 cm×8 cm piece of cabbage leaf was placed on a lump of wetted cotton in each one of four Petri dishes. 20 aphids were subsequently put on the cabbage leaf in each one of the Petri dishes. The thus formed pesticide reagent was diluted 1000 times with water to form a diluted solution which was then sprayed onto the cabbage leaf in each one of the Petri dishes in a predetermined amount. The number of dead aphids in each one of the Petri dishes was examined after 24 hours.
Example 13 was repeated, except that the compound employed in Example 13 was replaced by the compound obtained from a respective one of the Examples 2 to 12.
Example 13 was repeated, except that the compound employed in Example 13 was replaced by imidachloprid which is a heterocyclic compound of the formula disclosed in U.S. Pat. No. 4,742,060.
Table 2 lists the effectiveness of the pesticide reagents prepared in Examples 13 to 24 and the Comparative Example 1.

[1] = 20 aphids each, 9.6% w/w reagent diluted 1000 times, after 24 hours

## O=[N+]([O-])/N=C1\NCCN1Cc1ccc(Cl)nc1 [Comparative Example 1, imidachloprid, reference compound]
  Number of dead aphids 1st: 18
  Number of dead aphids 2nd: 17
  Number of dead aphids 3rd: 18
  Number of dead aphids 4th: 16
[1]
  Number of dead aphids average: 17.25
Higher value indicates greater effectivity, four Petri dishes, 20 aphids each, 9.6% w/w reagent diluted 1000 times, after 24 hours
  Effectiveness: 86.08

## Cc1ccc(S(=O)(=O)N=C2NCCN2Cc2ccc(Cl)nc2)cc1 [Example 13, 3-(2-chloro-5-pyridylmethyl)-2-[(4-methylphenyl)sulfonylimino]imidazolidine]
  Number of dead aphids 1st: 15
  Number of dead aphids 2nd: 18
  Number of dead aphids 3rd: 16
  Number of dead aphids 4th: 17
[1]
  Number of dead aphids average: 16.5

## Cc1ccc(S(=O)(=O)N=C2NCCCN2Cc2ccc(Cl)nc2)cc1 [Example 14, 3-(2-chloro-5-pyridylmethyl)-2-[(4-methylphenyl)sulfonylimino]tetrahydropyrimidine]
  Number of dead aphids 1st: 16
  Number of dead aphids 2nd: 17
  Number of dead aphids 3rd: 17
  Number of dead aphids 4th: 16
[1]
  Number of dead aphids average: 16.5

## CS(=O)(=O)/N=C1\NCCN1Cc1ccc(Cl)nc1 [Example 15, 3-(2-chloro-5-pyridylmethyl)-2-[methylsulfonylimino] imidazolidine]
  Number of dead aphids 1st: 16
  Number of dead aphids 2nd: 18
  Number of dead aphids 3rd: 19
  Number of dead aphids 4th: 19
[1]
  Number of dead aphids average: 18

## CS(=O)(=O)N=C1NCCCN1Cc1ccc(Cl)nc1 [Example 16, 3-(2-chloro-5-pyridylmethyl)-2-[methylsulfonylimino]tetrahydropyrimidine]
  Number of dead aphids 1st: 17
  Number of dead aphids 2nd: 17
  Number of dead aphids 3rd: 19
  Number of dead aphids 4th: 19
[1]
  Number of dead aphids average: 18

## O=S(=O)(N=C1NCCN1Cc1ccc(Cl)nc1)c1ccc(Cl)cc1 [Example 17, 3-(2-chloro-5-pyridylmethyl)-2-[(4-chlorophenyl)sulfonylimino]imidazolidine]
  Number of dead aphids 1st: 20
  Number of dead aphids 2nd: 18
  Number of dead aphids 3rd: 19
  Number of dead aphids 4th: 20
[1]
  Number of dead aphids average: 19.25

## O=S(=O)(N=C1NCCCN1Cc1ccc(Cl)nc1)c1ccc(Cl)cc1 [Example 18, 3-(2-chloro-5-pyridylmethyl)-2-[(4-chlorophenyl)sulfonylimino]tetrahydropyrimidine]
  Number of dead aphids 1st: 19
  Number of dead aphids 2nd: 19
  Number of dead aphids 3rd: 19
  Number of dead aphids 4th: 17
[1]
  Number of dead aphids average: 18.5

## Cc1ccc(S(=O)(=O)N=C2SCCN2Cc2ccc(Cl)nc2)cc1 [Example 19, 3-(2-chloro-5-pyridylmethyl)-2-[(4-methylphenyl)sulfonylimino]thiazolidine]
  Number of dead aphids 1st: 17
  Number of dead aphids 2nd: 16
  Number of dead aphids 3rd: 18
  Number of dead aphids 4th: 17
[1]
  Number of dead aphids average: 17

## Cc1ccc(S(=O)(=O)N=C2OCCN2Cc2ccc(Cl)nc2)cc1 [Example 20, 3-(2-chloro-5-pyridylmethyl)-2-[(4-methylphenyl)sulfonylimino]oxazolidine]
  Number of dead aphids 1st: 17
  Number of dead aphids 2nd: 16
  Number of dead aphids 3rd: 18
  Number of dead aphids 4th: 15
[1]
  Number of dead aphids average: 16.5

## CS(=O)(=O)/N=C1\SCCN1Cc1ccc(Cl)nc1 [Example 21, 3-(2-chloro-5-pyridylmethyl)-2-[methylsulfonylimino]thiazolidine]
  Number of dead aphids 1st: 16
  Number of dead aphids 2nd: 18
  Number of dead aphids 3rd: 19
  Number of dead aphids 4th: 18
[1]
  Number of dead aphids average: 17.75

## CS(=O)(=O)/N=C1\OCCN1Cc1ccc(Cl)nc1 [Example 22, 3-(2-chloro-5-pyridylmethyl)-2-[methylsulfonylimino]oxazolidine]
  Number of dead aphids 1st: 18
  Number of dead aphids 2nd: 16
  Number of dead aphids 3rd: 19
  Number of dead aphids 4th: 17
[1]
  Number of dead aphids average: 17.5

## O=S(=O)(N=C1SCCN1Cc1ccc(Cl)nc1)c1ccc(Cl)cc1 [Example 23, 3-(2-chloro-5-pyridylmethyl)-2-[(4-chlorophenyl)sulfonylimino]thiazolidine]
  Number of dead aphids 1st: 18
  Number of dead aphids 2nd: 18
  Number of dead aphids 3rd: 16
  Number of dead aphids 4th: 18
[1]
  Number of dead aphids average: 17.5

## O=S(=O)(N=C1OCCN1Cc1ccc(Cl)nc1)c1ccc(Cl)cc1 [Example 24, 3-(2-chloro-5-pyridylmethyl)-2-[(4-chlorophenyl)sulfonylimino]oxazolidine]
  Number of dead aphids 1st: 15
  Number of dead aphids 2nd: 18
  Number of dead aphids 3rd: 19
  Number of dead aphids 4th: 19
[1]
  Number of dead aphids average: 17.75
